Data from patent US10730864B2, “RAD51 inhibitors and uses thereof” (THE REGENTS OF THE UNIVERSITY OF CALIFORNIA, priority 2015, dated 2020).
Entries after “also recorded” stand apart in the source; their conditions may differ. Like-named read-outs stand apart in the source and are kept apart here.

Experiments:
[1] = test system: human breast cancer cell line Hs578-T; experiment: XTT growth inhibition assay, Hs578-T; assay type: cell-based; conditions: Hs-578T, Mammary Gland Carcinoma
Protocol: (§1) Standard XTT assays with a four-day drug treatment procedure were performed to measure the dose dependent cytotoxicity of IBR analogs in cultured cells. In brief, cells were plated on 96-well dishes one day before the drug treatment, followed by drug treatment on day 2 and XTT assay on day 6 after drug addition by using a commercial cell proliferation kit (Roche Scientific) following the instructions.
(§2) Triplicate sets were measured and compiled for final data presentation.
(§3) The growth inhibition of a panel of cancer cell lines was tested against IBR120 using an XTT assay. These cell lines included human Chronic Myelogenous Leukemia cell line K562, human breast cancer cell lines MCF7, MDA-MB-231, MDA-MB-361, MDA-MB-435, MDA-MB-468, Hs578-T, and T47D, human Osteosarcoma cell line U2OS, human Glioblastoma cell line T98G, human Cervical Cancer cell line HeLa, as well as human mammary gland normal epithelial cell line MCF10A as normal control.

[2] = test system: human breast cancer cell line T47D; experiment: XTT growth inhibition assay, T47D; assay type: cell-based; conditions: Mammary Gland Ductal Carcinoma
Protocol: as §1, §2, §3

RAD51 = biological target: T1, RAD51 (Homo sapiens, UniProt Q06609); experiment: Multimer formation assay (gel filtration); assay type: biochemical; conditions: RAD51:IBR120 1:10 molar ratio, gel filtration profile
T1 sequence (Q06609 1-339): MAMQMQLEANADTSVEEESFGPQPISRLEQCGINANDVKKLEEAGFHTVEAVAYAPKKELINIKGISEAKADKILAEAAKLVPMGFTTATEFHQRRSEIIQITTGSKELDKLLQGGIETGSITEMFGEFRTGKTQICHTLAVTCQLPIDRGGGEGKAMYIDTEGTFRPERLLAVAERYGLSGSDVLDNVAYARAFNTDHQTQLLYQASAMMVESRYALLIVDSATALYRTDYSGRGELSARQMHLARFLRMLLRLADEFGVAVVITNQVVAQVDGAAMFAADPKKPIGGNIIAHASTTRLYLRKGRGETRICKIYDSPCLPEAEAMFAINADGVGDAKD
Protocol: A mixture of RAD51 (3.2 μg) and IBR120 (1:10 molar ratio) was incubated for 15 min at 37° C., supplemented with buffer (50 mM triethanolamine-HCl [pH7.5], 0.5 mM Mg(OAc)2, 1 mM DTT, 2 mM ATP and 100 μg/ml BSA, total volume 20 μl) and incubated for 15 min. The mixture was loaded onto a 2.4 ml Superdex 200 PC 3.2/30 column (Pharmacia) equilibrated with the same buffer as previously described (Zhu et al., 2013, EMBO Mol. Med. 5:1-13; Pierce et al., 1999, Genes Dev. 13:2633-2638). Fractions (50 μl) were collected and 0.5 μl of each fraction was blotted onto PVDF membrane. RAD51 was detected using anti-RAD51 antibody (mAb 14B4, GeneTex)
On the RAD51 core domain, a hydrophobic pocket formed between β-strand B3 and α-helix A4 of RAD51 is critical for RAD51 multimerization (Pellegrini et al., 2002, Nature 420:287-293). It was hypothesized that IBR compounds should be able to inhibit RAD51 multimerization. In order to test this hypothesis, the gel filtration profile of RAD51 multimerization in the presence of IBR120 or vehicle (DMSO) alone were compared.

[3] = test system: panel of cancer cell lines; experiment: XTT growth inhibition assay, panel of cancer cell lines (summary); assay type: cell-based, human
Protocol: as §1, §2, §3

[4] = test system: human mammary gland normal epithelial cell line MCF10A; experiment: XTT growth inhibition assay, MCF10A normal control; assay type: cell-based; conditions: MCF-10A
Protocol: as §1, §2, §3

[5] = test system: human Osteosarcoma cell line U2OS; experiment: XTT growth inhibition assay, U2OS; assay type: cell-based
Protocol: as §1, §2, §3

[6] = test system: human breast cancer cell line MCF7; experiment: XTT growth inhibition assay, MCF7; assay type: cell-based; conditions: MCF7, Mammary Gland Adenocarcinoma
Protocol: as §1, §2, §3

[7] = test system: human Glioblastoma cell line T98G; experiment: XTT growth inhibition assay, T98G; assay type: cell-based; conditions: Glioblastoma Multiforme
Protocol: as §1, §2, §3

[8] = test system: HR repair in HeLa-DR-GFP cells; experiment: HR assay (I-SceI inducible gene conversion, DR-GFP); assay type: cell-based, human; conditions: 10 or 20 μM, 24 hours, GFP positive cells by flow cytometry
Protocol: HR frequency was measured by two-colour fluorescence flow cytometric analysis using HeLa-DR-GFP cells. Fifty thousand events were analyzed for each experiment. Cells were treated with DMSO (mock), 10 or 20 μM of IBR2 or IBR120 as indicated for 24 hours after transient transfection with I-SceI expression vector pCABSce for 24 hours. HR frequencies were indicated by GFP positive cell percentages. […] DMSO. […] DMSO. […] DMSO. […] DMSO. […] GFP positive cell percentages by indicated treatments obtained from three independent experiments are summarized as means±SD.
Using previously described methods (Zhu et al., 2013, EMBO Mol. Med. 5:1-13; Pierce et al., 1999, Genes Dev. 13:2633-2638), HeLa cells stably expressing DR-GFP were transfected with the I-Sce expression vector pCBASce and treated with compounds or DMSO. Cells were then trypsinized and subjected to flow cytometry.
Inhibition of RAD51 function will lead to failure in HR repair. […] Upon I-SceI expression by transient transfection for 24 hours to induce DSBs, cells were treated with DMSO, 10 or 20 μM of IBR120 or IBR2 for another 24 hours and the GFP positive population resulting from successful recombination was measured by flow cytometry.

[9] = test system: human Cervical Cancer cell line HeLa; experiment: XTT growth inhibition assay, HeLa; assay type: cell-based; conditions: Cervix Adenocarcinoma
Protocol: as §1, §2, §3

[10] = test system: triple-negative human breast cancer cell line MDA-MB-468; experiment: XTT cell killing / growth inhibition assay, MDA-MB-468; assay type: cell-based; conditions: for IC50: Homo sapiens
Protocol: as §1, §2
To test the possibility of inhibiting triple-negative breast cancer, the newly synthesized IBR2 analogues IBR101-124 were screened of their growth inhibition abilities using an XTT assay.

[11] = test system: human breast cancer cell line MDA-MB-231; experiment: XTT growth inhibition assay, MDA-MB-231; assay type: cell-based; conditions: MDA-MB-231, Mammary Gland Adenocarcinoma
Protocol: as §1, §2, §3

[12] = test system: human Chronic Myelogenous Leukemia cell line K562; experiment: XTT growth inhibition assay, K562; assay type: cell-based
Protocol: as §1, §2, §3

[13] = test system: human breast cancer cell line MDA-MB-435; experiment: XTT growth inhibition assay, MDA-MB-435; assay type: cell-based; conditions: MDA-MB-435, Melanoma/Mammary Gland Ductal Carcinoma
Protocol: as §1, §2, §3

[14] = test system: human breast cancer cell line MDA-MB-361; experiment: XTT growth inhibition assay, MDA-MB-361; assay type: cell-based; conditions: MDA-MB-361, Mammary Gland Adenocarcinoma
Protocol: as §1, §2, §3

IC50 [1]: 4.9 ± 1 µM
IC50 [2]: 6.3 ± 1.5 µM
IC50 ([3]; Homo sapiens, XTT assay, read-out: IC50 values in most tested cancer cell lines): 3 to 5 µM
IC50 [5]: 4.7 ± 0.5 µM
IC50 [6]: 3.1 ± 0.2 µM
IC50 [7]: 9.5 ± 0.9 µM
IC50 [9]: 3.6 ± 0.6 µM
IC50 [11]: 3.5 ± 0.4 µM
IC50 [12]: 3.6 ± 0.7 µM
IC50 [13]: 4 ± 0.7 µM
IC50 [14]: 4.5 ± 0.7 µM
SMILES: O=S(=O)(Cc1ccccc1)N1Cc2ccccc2[C@@H]1c1c[nH]c2ccccc12 [IBR120, (R)-3-(2-(benzylsulfonyl)isoindolin-1-yl)-1H-indole]
RAD51 multimerization (in words) (RAD51): capable of disrupting RAD51 multimerization; also recorded: can inhibit RAD51 multimerization; also recorded: can disrupt RAD51 multimer formation in vitro; also recorded: inhibits RAD51 multimerization
difference between the IC50 values in normal and cancer cells ([3]; MCF10A versus cancer cell lines): approximately 10 fold
IC50 [4]: > 30 µM
HR frequency / HR repair (in words) [8]: impairing homologous recombination repair; also recorded: significantly reduced; also recorded: greater depression of HR repair activity; also recorded: inhibit HR repair in cells; also recorded: dose dependently inhibits HR repair
IC50 ([10]; 96 h, MDA-MB-468, XTT assay, four-day drug treatment, read-out: IC50): 3.1 µM
IC50 ([10]; MDA-MB-468, growth inhibition, raw dataset for SAR analysis, read-out: pIC50 (converted)): 3.24 µM
IC50 ([10]; MDA-MB-468, Mammary Gland Adenocarcinoma (Table 3, with spread), read-out: IC50): 3.1 ± 0.4 µM
IC50 compared with that of the parental compound IBR2 (in words) ([10]; MDA-MB-468): significantly lower
